Measurements taken from PubChem BioAssay AID1996.
Converted amounts (≈) assume the structure as drawn.

Settings: buffer; pH 7.4; 200.0 µM

Compound | solubility kinetic [µg/mL]
CC(C)OCCCNC(=O)C1CC(=O)N(CCc2ccccc2)C1 (stereo not drawn) | 48.9 (≈ 147 µM)
Cc1ccccc1NC(=O)N1CCC(C(=O)c2ccc(F)cc2)CC1 | 33.4 (≈ 98.1 µM)
O=S(=O)(c1ccc2ccccc2c1)N1CCc2ccccc21 | < 0.7
O=[N+]([O-])c1cccnc1Oc1ccc(OCc2ccccc2)cc1 | < 0.3
COc1cc(/C=C(\NC(C)=O)C(=O)O)cc(OC)c1OC | > 44.3
N#Cc1c(NC(=O)CCC(=O)O)sc2c1CCCCC2 | > 43.9
CCOc1ccc(NC(=O)COC(=O)C2CC2C)cc1 (stereo not drawn) | > 41.6
C=CCNC(=O)C1=NN(c2c(F)c(F)cc(F)c2F)C(=O)CC1 | > 49.4
C#CCn1cnc2c(oc3ccccc32)c1=O | > 33.6
O=C(Cc1ccccc1)Nc1ncccc1Cl | > 37
C/C(=N\O)c1ccn(S(=O)(=O)c2ccc(Cl)cc2)c1 | 8.4 (≈ 28.1 µM)
O=C1CSC(c2ccccc2F)N1 (stereo not drawn) | > 29.6
Cc1ccccc1NC(=O)c1c([N+](=O)[O-])cnn1C | > 39
Cc1cc(N2CCCC2=O)ccc1S(=O)(=O)NC1CCCCC1 | 29.3 (≈ 87.1 µM)
CC12CCC(C/C1=N/O)C2(C)CBr (stereo not drawn) | > 36.9
Cc1[nH]c2ccccc2c1C(=O)C(=O)Nc1ccc2c(c1)OCCO2 | 1.9 (≈ 5.65 µM)
O=C(O)C1c2ccccc2C(=O)N(Cc2ccc(F)cc2)C1c1ccncc1 (stereo not drawn) | > 56.5
Cc1sc2nc[nH]c(=O)c2c1-c1ccc(Cl)cc1 | 1.8 (≈ 6.5 µM)
O=[N+]([O-])c1cc(C(F)(F)F)ccc1NCCc1ccccn1 | 18.8 (≈ 60.4 µM)
Cc1cc2c(cc1C)CN(c1ccccc1)C2 | 7.1 (≈ 31.8 µM)
CCOCCCNC(=O)c1ccc(NC(=O)C2CCCO2)cc1 (stereo not drawn) | > 48.1
N#C/C(=C\c1ccccc1C(=O)O)c1nc2ccccc2[nH]1 | > 43.4
CCc1ccccc1N(CC(=O)N1CCCCCC1)S(C)(=O)=O | 43.5 (≈ 129 µM)
Cc1cc(C(=O)NC2CCC(O)CC2)c(C)o1 (stereo not drawn) | > 35.6

Compound | solubility kinetic [µg/mL]
Cc1cc(C(=O)OCC(=O)NCc2ccccc2)c2ccccc2n1 | 13.9 (≈ 41.6 µM)
COC(=O)[C@@H](NC(=O)N1CCC(C)CC1)C(C)C | 34 (≈ 133 µM)
O=C(O)COCC(=O)Nc1ccc(OCCc2ccccc2)cc1 | 45.4 (≈ 138 µM)
CCOC(=O)C1(Cc2cccc(F)c2)CCN(C(=O)COC)CC1 | 47.2 (≈ 140 µM)
Cc1ccc(NS(=O)(=O)c2cc(C(=O)N(C)C3CCN(C)CC3)ccc2Cl)cc1Cl.O=C(O)C(=O)O | > 84.1
Cc1cccc(N2C(=O)c3cccc4cccc(c34)C2=O)c1 | 1.5 (≈ 5.22 µM)
CCCOc1c(Cl)cc(C(=O)NC)cc1OC | > 38.7
Nc1c(C(=O)CSc2ccccn2)c(=O)[nH]c(=O)n1C1CC1 | 24.6 (≈ 77.3 µM)
c1ccc(-c2ccc(C(c3ccccc3)n3ccnc3)cc2)cc1 (stereo not drawn) | 0.7 (≈ 2.26 µM)
CCC(=O)NCc1ccc2[nH]c(C)cc2c1 | 32.3 (≈ 149 µM)
O=C(Nc1ccccc1C(F)(F)F)c1ccccn1 | 6.7 (≈ 25.2 µM)
CCc1ccc(NS(=O)(=O)c2ccc3c(c2)oc(=O)n3C)cc1 | 2.1 (≈ 6.32 µM)
COc1ccc(NS(=O)(=O)c2cn(C)cn2)cc1 | > 40.1
CC1CCC2(CC1)NC(=O)N(CC(=O)N1CC(C)CC(C)C1)C2=O (stereo not drawn) | 15.8 (≈ 47.1 µM)
O=C(CSc1ccccc1C(=O)O)NC12CC3CC(CC(C3)C1)C2 | > 51.8
Cc1ccc(COc2ccc(C)nc2[N+](=O)[O-])cc1 | 1.2 (≈ 4.65 µM)
Nc1ccc(N2CCOCC2)c(S(=O)(=O)Nc2ccccc2Cl)c1 | 31.7 (≈ 86.2 µM)
CCN(CC)CCCNC(=O)/C=C/C(=O)O | 31.2 (≈ 137 µM)
Cc1ccnc(NC(=O)c2cnc(Cl)c(Cl)c2)c1 | 6.4 (≈ 22.7 µM)
Cc1ccc(C(OC(=O)c2ccco2)C(=O)NC2CCCC2)cc1 (stereo not drawn) | 2 (≈ 6.11 µM)
O=C(NCCO)C(=O)Nc1cc2c3c(c1)CCC(=O)N3CCC2 | > 47.6
COc1ccc(NC(=O)COc2ccc3c(c2)OCO3)cc1 | 39.5 (≈ 131 µM)
CCN(CC)C(=O)N[C@H]1C[C@@H]2c3cccc4[nH]cc(c34)C[C@H]2N(C)C1 | 14.1 (≈ 41.4 µM)
O=C(NC1CCCC1)C1CC(O)CN1C(=O)Nc1ccccc1 (stereo not drawn) | > 47.6

Compound | solubility kinetic [µg/mL]
CCOC(=O)c1ccc(NC(=O)N2CCOCC2)cc1 | > 41.7
O=C(CSc1ccc([N+](=O)[O-])cc1)Nc1ccccc1N1CCOCC1 | 4.9 (≈ 13.1 µM)
Nc1nc2ccccc2cc1-c1cccs1 | 27.7 (≈ 122 µM)
Cc1ccc(C(=O)NCCC(=O)Nc2ccccc2C)cc1 | > 44.5
O=C1COc2ccc(C(=O)COc3ccc([N+](=O)[O-])cc3)cc2N1 | 0.8 (≈ 2.44 µM)
Cc1ccc(S(=O)(=O)c2c(C)cc(C)nc2N2CCCC2)cc1 | 1.2 (≈ 3.63 µM)
Cc1ccc(S(=O)(=O)N2CCOCC2)cc1NC(=O)c1cc2ccccc2oc1=O | 1.1 (≈ 2.57 µM)
Cc1cc(C)nc(SC2CC(=O)N(c3ccc(C)c(C)c3)C2=O)n1 (stereo not drawn) | 19.7 (≈ 57.7 µM)
COc1ccc(Nc2nc(N)c([N+](=O)[O-])c(NC3CCCCC3)n2)cc1 | 0.2 (≈ 0.558 µM)
Clc1ccc(CN2CCC(c3ccccc3)CC2)cc1 | 4.3 (≈ 15 µM)
CC(=O)N1c2ccccc2CCc2ccc([N+](=O)[O-])cc21 | > 42.3
O=C(Nc1ccc([N+](=O)[O-])cc1)c1cc(Cl)sc1Cl | < 0.3
CCN(CC)CC(C)OC(=O)c1ccccc1Cl (stereo not drawn) | 37.9 (≈ 140 µM)
COc1ccc(/C=C/C(=O)Nc2cc(S(=O)(=O)N3CCOCC3)ccc2OC)cc1 | 8 (≈ 18.5 µM)
CN(CC(=O)NCc1ccccn1)S(=O)(=O)c1ccc(F)cc1 | > 50.6
[O-][n+]1ccc(OCc2ccccc2)cc1 | > 30.2
CCCn1c(=O)c2c(nc3n2CCS3)n(C)c1=O | > 39.9
COC1=C/C(=C/c2c(O)c(C#N)c3ccccn23)C=CC1=O | 17.5 (≈ 59.9 µM)
O=C1NC(=Nc2ccccc2)S/C1=C\c1ccccc1 | 0.8 (≈ 2.85 µM)
O=C(O)c1cc([N+](=O)[O-])ccc1NCc1cccnc1 | > 41
COc1ccc(N2CCN(C(=O)CCc3ccccc3)CC2)cc1 | > 48.7
C/C(=N\O)c1ccc2c(c1)OCCO2 | > 29
Cc1ccc(S(=O)(=O)N2CCCc3ccccc32)cc1C | 2.3 (≈ 7.63 µM)
COc1ccccc1N1C(=O)C=C(Sc2nc(C)cc(C)n2)C1=O | 9.1 (≈ 26.7 µM)

Compound | solubility kinetic [µg/mL]
O=C1C2C3C=CC(C3)C2C(=O)N1c1cccc2ccccc12 (stereo not drawn) | 22.9 (≈ 79.1 µM)
CC1CCCN(Cc2nc(Cc3ccccc3Cl)no2)C1 (stereo not drawn) | 27 (≈ 88.3 µM)
O=C1Nc2ccccc2C(=O)N2CCCCC12 (stereo not drawn) | 19.3 (≈ 83.8 µM)
CC(=O)Oc1ccc(/C=C/c2nc3ccccc3c(=O)o2)cc1 | < 0.7
CN(C)C(CNC(=O)c1ccc(Br)cc1)c1ccco1 (stereo not drawn) | 30.4 (≈ 90.1 µM)
COc1cccc(-c2csc(NC(=O)Nc3ccccc3)n2)c1 | < 0.2
Cc1ccccc1OCc1nc(C#N)c(N2CCCC2)o1 | 10.9 (≈ 38.5 µM)
Cn1cnc2cc(NCc3ccc(Cl)cc3)ccc21 | > 40.8
Cc1ccc(C(=O)NCCc2ccc(F)cc2)s1 | 5.6 (≈ 21.3 µM)
Cc1ccc(NC(=O)CN(C)C(=O)c2ccc(NS(=O)(=O)c3cccc([N+](=O)[O-])c3)cc2)cc1 | 11.6 (≈ 24 µM)
CCOC(=O)Cc1csc(NC(=O)c2cccc(Cl)c2)n1 | 6.9 (≈ 21.2 µM)
Cc1onc(-c2ccccc2)c1C(=O)NCc1cccc(Cl)c1 | 1.1 (≈ 3.37 µM)
CCc1ccc(N2CC(C(=O)N3CCCCCC3)CC2=O)cc1 (stereo not drawn) | > 47.2
Cc1cc2oc(=O)cc(CN3CCCCC3C)c2cc1C(C)C (stereo not drawn) | 8.1 (≈ 25.8 µM)
Cn1c(O)c(C=NCCCCCCCCCCC(=O)O)c(=O)n(C)c1=O | > 55.1
CCCCc1nc2ccc(S(=O)(=O)O)cc2[nH]1 | 31.4 (≈ 123 µM)
CCOC(=O)C1CCCN(S(=O)(=O)c2ccc(NC(C)=O)cc2)C1 (stereo not drawn) | > 53.2
O=C(CN1CCCCC1)Nc1scc2c1c(=O)oc1ccccc12 | < 0.4
CC1(C(=O)NCC2CCCO2)Oc2cccnc2NC1=O (stereo not drawn) | > 43.7
Cc1nc(SCC(=O)Nc2ccccc2Cl)oc1C | > 44.5
COc1ccc(C(=O)Nc2cnccn2)cc1[N+](=O)[O-] | 13.9 (≈ 50.7 µM)
CCOCCCN1CC(C(=O)NCc2ccc3c(c2)OCO3)CC1=O (stereo not drawn) | > 52.3
CCC(C)NS(=O)(=O)c1cc2c3c(c1)CCC(=O)N3CCC2 (stereo not drawn) | > 48.4
COc1cc2c(cc1OC)C(c1ccccc1N)=NCC2 | > 42.4

Compound | solubility kinetic [µg/mL]
CC1CN(C(=O)c2ccc(Oc3ccccc3)cc2)CC(C)O1 (stereo not drawn) | > 46.7
O=C(Nc1cc(Cl)ccn1)C1(c2ccccc2)CC1(Cl)Cl (stereo not drawn) | < 0.4
CN(Cc1ccc(C(F)(F)F)cc1)C(=O)C1CC(=O)N(Cc2ccco2)C1 (stereo not drawn) | 51.8 (≈ 136 µM)
O=C(NN=Cc1ccc(O)cc1)c1ccccc1NS(=O)(=O)c1cccs1 | > 60.2
CSCC[C@H](NC(=O)c1ccco1)c1nnc2ccccn12 | > 47.5
Cc1ccnc(NCc2c(O)ccc3ccccc23)c1 | 9.2 (≈ 34.8 µM)
Cc1cc(C)cc(OCC(=O)O/N=C(\N)Cc2ccc([N+](=O)[O-])cc2)c1 | 20.4 (≈ 57.1 µM)
Cc1csc(=O)n1CC(=O)OCC(=O)NCc1ccccc1 | > 48.1
O=C(Nc1cccc(Cl)c1)Nc1ccc2nccnc2c1 | 1.7 (≈ 5.69 µM)
Cc1ccccc1COC(=O)c1cc([N+](=O)[O-])ccc1N1CCOCC1 | 5.8 (≈ 16.3 µM)
CCOC(=O)C1=C(C)Nc2ccccc2N=C1N | > 36.8
Cc1ccccc1C(=O)NCCCNC(=O)c1ccco1 | 42.9 (≈ 150 µM)
Nc1c(C(=O)N2CCCCC2)sc2nc3c(cc12)CCCC3 | 41.7 (≈ 132 µM)
O=C(OCCN=C1NS(=O)(=O)c2ccccc21)c1cccc([N+](=O)[O-])c1 | 3 (≈ 7.99 µM)
CCOC(=O)N1CCN(C(=O)CCc2ccccc2)CC1 | > 43.6
O=C(COC(=O)COc1ccccc1F)Nc1ccc(Cl)cn1 | 7.6 (≈ 22.4 µM)
Cl.Oc1cccc(Nc2ncnc3c2oc2ccccc23)c1 | 2.3
O=C(OCC(=O)N(CCc1ccccc1)Cc1ccccc1)c1cccc(O)c1 | 2.6 (≈ 6.68 µM)
Cc1c[n+](CC(=O)c2ccccc2)cs1.[Br-] | 44.3
COC(=O)c1ccc(CSc2nc3ccccc3c(=O)n2C)o1 | 4.5 (≈ 13.6 µM)
O=C(Nc1ccc(Cl)c(S(=O)(=O)N2CCOCC2)c1)c1ccc2c(c1)OCO2 | 2.6 (≈ 6.12 µM)
O=C1c2ccccc2NC(c2ccccc2O)N1O (stereo not drawn) | > 38.4
